Laboratory results from ChEMBL document CHEMBL3272271, “Folate antagonists. 13. 2,4-Diamino-6-](alpha,alpha,alpha-trifluoro-m-tolyl)thio]quinazoline and related 2,4-diamino-6-[(phenyl- and naphthyl)thio]quinazolines, a unique class of antimetabolites with extraordinary antimalarial and antibacterial effects” (J Med Chem, 1978).
≈ marks a conversion by molar mass, not a printed value. Calls of active or inactive are those of the source. No cut-off for these calls is given here.

What was measured:
Plasmodium berghei [1] = assay: Antimalarial activity against Plasmodium berghei infected in mouse assessed as increase in mean survival days of host at 2.5 mg/kg, sc administered 72 hrs after infection relative to control; assay type: functional; settings: route subcutaneous
Plasmodium berghei [2] = assay: Antimalarial activity against Plasmodium berghei infected in mouse assessed as disease cure from parasite infection at 80 mg/kg, sc administered 72 hrs after infection; assay type: functional, organism-based; parameters: dose 80 mg/kg
Plasmodium gallinaceum [3] = assay: Antimalarial activity against trophozoite-induced Plasmodium gallinaceum infected in white leghorn chicken assessed as increase in mean survival days of host at 160 mg/kg, sc administered 72 hrs after infection relative to control; assay type: functional; settings: route subcutaneous
Plasmodium berghei [4] = assay: Antimalarial activity against Plasmodium berghei infected in mouse assessed as increase in mean survival days of host at 40 mg/kg, sc administered 72 hrs after infection relative to control; assay type: functional; settings: route subcutaneous
Plasmodium berghei [5] = assay: Antimalarial activity against Plasmodium berghei infected in mouse assessed as increase in mean survival days of host at 10 mg/kg, sc administered 72 hrs after infection relative to control; assay type: functional; settings: route subcutaneous
Plasmodium falciparum [6] = assay: Antimalarial activity against chloroquine-susceptible, pyrimethamine-resistant Plasmodium falciparum Malayan Camp infected in Aotus trivirgatus owl monkey model assessed as cure from parasite infection at >2.5 mg/kg, po qd for 7 days relative to control; assay type: functional
Plasmodium falciparum [7] = assay: Antimalarial activity against pyrimethamine-sensitive Plasmodium falciparum Vietnam Oak Knoll infected in Aotus trivirgatus owl monkey model assessed as cure from parasite infection at 0.6 mg/kg, po qd for 7 days relative to control; assay type: functional
Plasmodium berghei [8] = assay: Antimalarial activity against Plasmodium berghei infected in mouse assessed as increase in mean survival days of host at 1.25 mg/kg, sc administered 72 hrs after infection relative to control; assay type: functional; settings: route subcutaneous
Plasmodium berghei [9] = assay: Antimalarial activity against Plasmodium berghei infected in mouse assessed as disease cure from parasite infection at 320 mg/kg, sc administered 72 hrs after infection; assay type: functional, organism-based; parameters: dose 320 mg/kg
Plasmodium gallinaceum [10] = assay: Antimalarial activity against sporozoite-induced Plasmodium gallinaceum infected in white leghorn chicken assessed as disease cure from parasite infection at 40 mg/kg, sc administered 72 hrs after infection; assay type: functional, organism-based; parameters: dose 40 mg/kg
Plasmodium berghei [11] = assay: Antimalarial activity against Plasmodium berghei infected in mouse assessed as disease cure from parasite infection at 40 mg/kg, sc administered 72 hrs after infection; assay type: functional, organism-based; parameters: dose 40 mg/kg
Plasmodium berghei [12] = assay: Antimalarial activity against Plasmodium berghei infected in mouse assessed as increase in mean survival days of host at 20 mg/kg, sc administered 72 hrs after infection relative to control; assay type: functional; settings: route subcutaneous
Plasmodium berghei [13] = assay: Antimalarial activity against Plasmodium berghei infected in mouse assessed as disease cure from parasite infection at 640 mg/kg, sc administered 72 hrs after infection; assay type: functional, organism-based; parameters: dose 640 mg/kg
Plasmodium gallinaceum [14] = assay: Antimalarial activity against sporozoite-induced Plasmodium gallinaceum infected in white leghorn chicken assessed as disease cure from parasite infection at 20 mg/kg, sc administered 72 hrs after infection; assay type: functional, organism-based; parameters: dose 20 mg/kg
Plasmodium falciparum [15] = assay: Antimalarial activity against chloroquine-susceptible, pyrimethamine-resistant Plasmodium falciparum Malayan Camp infected in Aotus trivirgatus owl monkey model assessed as cure from parasite infection at 0.39 to 5 mg/kg, po qd for 7 days relative to control; assay type: functional; settings: dose mg/kg 0.39-5
Plasmodium falciparum [16] = assay: Antimalarial activity against pyrimethamine-sensitive Plasmodium falciparum Vietnam Oak Knoll infected in Aotus trivirgatus owl monkey model assessed as cure from parasite infection at 0.098 to 1.56 mg/kg, po qd for 7 days relative to control; assay type: functional; settings: dose mg/kg 0.098-1.56
Plasmodium gallinaceum [17] = assay: Antimalarial activity against sporozoite-induced Plasmodium gallinaceum infected in white leghorn chicken assessed as disease cure from parasite infection at 10 mg/kg, sc administered 72 hrs after infection; assay type: functional, organism-based; parameters: dose 10 mg/kg
Plasmodium berghei [18] = assay: Antimalarial activity against Plasmodium berghei infected in mouse assessed as disease cure from parasite infection at 160 mg/kg, sc administered 72 hrs after infection; assay type: functional, organism-based; parameters: dose 160 mg/kg
Plasmodium gallinaceum [19] = assay: Antimalarial activity against sporozoite-induced Plasmodium gallinaceum infected in white leghorn chicken assessed as disease cure from parasite infection at 80 mg/kg, sc administered 72 hrs after infection; assay type: functional, organism-based; parameters: dose 80 mg/kg
Plasmodium gallinaceum [20] = assay: Antimalarial activity against sporozoite-induced Plasmodium gallinaceum infected in white leghorn chicken assessed as disease cure from parasite infection at 160 mg/kg, sc administered 72 hrs after infection; assay type: functional, organism-based; parameters: dose 160 mg/kg
Plasmodium gallinaceum [21] = assay: Antimalarial activity against sporozoite-induced Plasmodium gallinaceum infected in white leghorn chicken assessed as disease cure from parasite infection at 320 mg/kg, sc administered 72 hrs after infection; assay type: functional, organism-based; parameters: dose 320 mg/kg
Plasmodium berghei [22] = assay: Antimalarial activity against Plasmodium berghei infected in mouse assessed as increase in mean survival days of host at 5 mg/kg, sc administered 72 hrs after infection relative to control; assay type: functional; settings: route subcutaneous
Plasmodium gallinaceum [23] = assay: Antimalarial activity against sporozoite-induced Plasmodium gallinaceum infected in white leghorn chicken assessed as increase in mean survival days of host at 10 mg/kg, sc administered 72 hrs after infection relative to control; assay type: functional; settings: route subcutaneous
Plasmodium berghei [24] = assay: Antimalarial activity against Plasmodium berghei infected in mouse assessed as disease cure from parasite infection at 20 mg/kg, sc administered 72 hrs after infection; assay type: functional, organism-based; parameters: dose 20 mg/kg
Staphylococcus aureus [25] = assay: Antibacterial activity against drug-resistant Staphylococcus aureus S18713 by gradient plate test; assay type: functional
Escherichia coli = assay: Antibacterial activity against Escherichia coli Vogel by gradient plate test; assay type: functional
Shigella sonnei = assay: Antibacterial activity against Shigella sonnei C-10 by gradient plate test; assay type: functional
Enterococcus faecalis = assay: Antibacterial activity against Streptococcus faecalis MGH-2 by gradient plate test; assay type: functional
Plasmodium berghei [26] = assay: Antimalarial activity against trophozoite-induced Plasmodium berghei infected in mouse assessed as daily dose required to suppression of 90% parasite infection administered with diet for 6 days; assay type: functional
Plasmodium berghei [27] = assay: Ratio of quinine hydrochloride SD90 to compound SD90 for trophozoite-induced Plasmodium berghei infected in mouse assessed as daily dose required to suppression of 90% parasite infection administered with diet for 6 days; assay type: functional
Plasmodium gallinaceum [28] = assay: Antimalarial activity against sporozoite-induced Plasmodium gallinaceum infected in white leghorn chicken assessed as increase in mean survival days of host at 20 mg/kg, sc administered 72 hrs after infection relative to control; assay type: functional; settings: route subcutaneous
Gallus gallus = assay: Toxicity in sporozoite-induced Plasmodium gallinaceum infected white leghorn chicken assessed as mortality at 320 mg/kg, sc administered 72 hrs after infection measured up to 6 days; assay type: organism-based; parameters: dose 320 mg/kg, route subcutaneous; settings: in vivo
Pseudomonas aeruginosa = assay: Antibacterial activity against Pseudomonas aeruginosa 28 by gradient plate test; assay type: functional
Staphylococcus aureus [29] = assay: Antibacterial activity against Staphylococcus aureus UC-96 by gradient plate test; assay type: functional

SMILES	MST (Plasmodium berghei [1])	Activity (Plasmodium berghei [2])	MST (Plasmodium berghei [5])	MST (Plasmodium berghei [8])	Activity (Plasmodium berghei [9])	Activity (Plasmodium gallinaceum [10])	Activity (Plasmodium berghei [11])	Activity (Plasmodium berghei [13])	Activity (Plasmodium gallinaceum [14])	Activity (Plasmodium gallinaceum [17])	Activity (Plasmodium berghei [18])	Activity (Plasmodium gallinaceum [19])	Activity (Plasmodium gallinaceum [20])	Activity (Plasmodium gallinaceum [21])	MST (Plasmodium berghei [22])	MST (Plasmodium gallinaceum [23])	also measured
Nc1nc(N)c2cc(Sc3cccc(C(F)(F)F)c3)ccc2n1 [WR-159412]	2.7 days	Active	9.1 days	0.5 days	Active	Active	Active	Active	Active	Active	Active	Active	Active	Active	8.7 days	7.3 days	MST (Plasmodium gallinaceum [3]): 15.4 days; MST (Plasmodium berghei [4]): 14.9 days; Activity (Plasmodium falciparum [6]): >50%; Activity (Plasmodium falciparum [7]): >50%; MST (Plasmodium berghei [12]): 12.7 days; Activity (Plasmodium falciparum [15]): >50%; Activity (Plasmodium falciparum [16]): >50%
COc1ccc(Sc2ccc3nc(N)nc(N)c3c2)cc1	3.8 days	Active	9.6 days	2.2 days	Active	Active	Active	Active	Active	Active	Active	Active	Active	Active	4.8 days	2.2 days	Activity (Plasmodium berghei [24]): Active; MIC (Staphylococcus aureus [25]): < 0.25 µg/mL; MIC (Escherichia coli): < 0.25 µg/mL; MIC (Shigella sonnei): 1.5 µg/mL (≈ 5.03 µM); MIC (Enterococcus faecalis): < 0.25 µg/mL; SD90 (Plasmodium berghei [26]): 1.2 mg/kg/day; Ratio (Plasmodium berghei [27]): 62; MST (Plasmodium gallinaceum [28]): 3.2 days; Activity (Gallus gallus): Toxic; MIC (Pseudomonas aeruginosa): > 25 µg/mL; MIC (Staphylococcus aureus [29]): < 0.25 µg/mL
